Read-outs that look alike come from different tables or passages of the source.
Columns and labels:
Test in all cases: Ambit kinase profiling, competition binding
RIPK4 = target: T1, RIPK4 (Homo sapiens, UniProt P57078)
T1 construct: purchased Ambit Biosciences (KINOMEscan)
T1 sequence (P57078 1-832): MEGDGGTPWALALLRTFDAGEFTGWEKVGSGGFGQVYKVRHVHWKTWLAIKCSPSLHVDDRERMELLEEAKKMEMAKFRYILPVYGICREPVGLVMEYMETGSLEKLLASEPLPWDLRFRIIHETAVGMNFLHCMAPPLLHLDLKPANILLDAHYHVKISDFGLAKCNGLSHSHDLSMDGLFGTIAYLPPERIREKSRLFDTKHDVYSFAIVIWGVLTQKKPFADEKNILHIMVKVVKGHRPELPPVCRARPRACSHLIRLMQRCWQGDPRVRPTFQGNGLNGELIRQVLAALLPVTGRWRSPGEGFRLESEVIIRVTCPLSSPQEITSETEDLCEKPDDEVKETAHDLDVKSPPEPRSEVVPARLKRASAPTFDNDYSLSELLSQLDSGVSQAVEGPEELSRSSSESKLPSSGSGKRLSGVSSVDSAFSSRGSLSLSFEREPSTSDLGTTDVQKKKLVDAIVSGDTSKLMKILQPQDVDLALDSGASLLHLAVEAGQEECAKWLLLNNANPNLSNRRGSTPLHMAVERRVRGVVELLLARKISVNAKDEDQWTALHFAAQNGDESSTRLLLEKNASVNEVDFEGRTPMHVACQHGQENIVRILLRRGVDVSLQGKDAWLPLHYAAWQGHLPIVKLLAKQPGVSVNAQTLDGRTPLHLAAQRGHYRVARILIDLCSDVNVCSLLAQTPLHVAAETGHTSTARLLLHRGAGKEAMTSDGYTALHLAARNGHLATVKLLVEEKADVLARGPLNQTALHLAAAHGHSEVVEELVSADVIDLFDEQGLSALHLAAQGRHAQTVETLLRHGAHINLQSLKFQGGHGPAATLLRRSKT
Method: (§1) Also included in the kinase profile are four isoforms of PKC (δ, ε, η, θ) and eight isoforms of CAMKs (CAMKIα, δ, γ; CAMKIIα, β, δ, γ; CAMK4).
(§2) The global kinase profiling experiment was performed by Ambit Biosciences.

FLT3(D835Y) = target: T2, FLT3(D835Y) (Homo sapiens, UniProt P36888, D835Y)
T2 construct: purchased Ambit Biosciences (KINOMEscan)
T2 sequence (P36888 27-993 D835Y): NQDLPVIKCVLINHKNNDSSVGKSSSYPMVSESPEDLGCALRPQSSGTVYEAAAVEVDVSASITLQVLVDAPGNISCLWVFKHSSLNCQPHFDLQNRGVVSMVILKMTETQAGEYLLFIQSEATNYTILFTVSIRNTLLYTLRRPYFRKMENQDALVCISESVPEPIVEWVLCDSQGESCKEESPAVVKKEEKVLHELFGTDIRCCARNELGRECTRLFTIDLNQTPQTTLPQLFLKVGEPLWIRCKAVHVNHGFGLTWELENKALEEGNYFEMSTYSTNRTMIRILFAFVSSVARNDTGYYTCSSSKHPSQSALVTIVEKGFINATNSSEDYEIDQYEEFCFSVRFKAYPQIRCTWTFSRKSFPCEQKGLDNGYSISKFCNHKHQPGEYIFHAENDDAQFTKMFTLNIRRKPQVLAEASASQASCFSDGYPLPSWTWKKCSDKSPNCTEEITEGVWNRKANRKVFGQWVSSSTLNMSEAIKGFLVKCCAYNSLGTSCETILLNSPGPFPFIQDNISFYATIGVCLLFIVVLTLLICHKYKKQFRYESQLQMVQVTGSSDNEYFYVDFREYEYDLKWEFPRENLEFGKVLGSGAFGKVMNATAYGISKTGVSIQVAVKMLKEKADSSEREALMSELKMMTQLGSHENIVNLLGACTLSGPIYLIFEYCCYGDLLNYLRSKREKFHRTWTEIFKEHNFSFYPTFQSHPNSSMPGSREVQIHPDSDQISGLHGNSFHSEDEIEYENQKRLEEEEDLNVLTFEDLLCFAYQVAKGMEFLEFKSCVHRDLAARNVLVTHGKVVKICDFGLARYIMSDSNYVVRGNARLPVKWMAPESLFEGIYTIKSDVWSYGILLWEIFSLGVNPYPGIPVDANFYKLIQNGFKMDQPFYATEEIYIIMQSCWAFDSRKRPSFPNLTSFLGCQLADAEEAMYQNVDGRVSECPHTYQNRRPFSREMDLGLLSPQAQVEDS
Method: as §1, §2

PAK4 = target: T3, PAK4 (Homo sapiens, UniProt O96013)
T3 construct: purchased Ambit Biosciences (KINOMEscan)
Method: as §1, §2

EGFR(E746-A750del) = target: T4, EGFR(E746-A750del) (Homo sapiens, UniProt P00533, DEL746-750); settings: for % Competition: 10 µM
T4 construct: purchased Ambit Biosciences (KINOMEscan)
Method: as §1, §2

CIT = target: T5, CIT (Homo sapiens, UniProt O14578); settings: for % Competition: 10 µM
T5 construct: purchased Ambit Biosciences (KINOMEscan)
Method: as §1, §2

DDR2 = target: T6, DDR2 (Homo sapiens, UniProt Q16832)
T6 construct: purchased Ambit Biosciences (KINOMEscan)
T6 sequence (Q16832 22-855): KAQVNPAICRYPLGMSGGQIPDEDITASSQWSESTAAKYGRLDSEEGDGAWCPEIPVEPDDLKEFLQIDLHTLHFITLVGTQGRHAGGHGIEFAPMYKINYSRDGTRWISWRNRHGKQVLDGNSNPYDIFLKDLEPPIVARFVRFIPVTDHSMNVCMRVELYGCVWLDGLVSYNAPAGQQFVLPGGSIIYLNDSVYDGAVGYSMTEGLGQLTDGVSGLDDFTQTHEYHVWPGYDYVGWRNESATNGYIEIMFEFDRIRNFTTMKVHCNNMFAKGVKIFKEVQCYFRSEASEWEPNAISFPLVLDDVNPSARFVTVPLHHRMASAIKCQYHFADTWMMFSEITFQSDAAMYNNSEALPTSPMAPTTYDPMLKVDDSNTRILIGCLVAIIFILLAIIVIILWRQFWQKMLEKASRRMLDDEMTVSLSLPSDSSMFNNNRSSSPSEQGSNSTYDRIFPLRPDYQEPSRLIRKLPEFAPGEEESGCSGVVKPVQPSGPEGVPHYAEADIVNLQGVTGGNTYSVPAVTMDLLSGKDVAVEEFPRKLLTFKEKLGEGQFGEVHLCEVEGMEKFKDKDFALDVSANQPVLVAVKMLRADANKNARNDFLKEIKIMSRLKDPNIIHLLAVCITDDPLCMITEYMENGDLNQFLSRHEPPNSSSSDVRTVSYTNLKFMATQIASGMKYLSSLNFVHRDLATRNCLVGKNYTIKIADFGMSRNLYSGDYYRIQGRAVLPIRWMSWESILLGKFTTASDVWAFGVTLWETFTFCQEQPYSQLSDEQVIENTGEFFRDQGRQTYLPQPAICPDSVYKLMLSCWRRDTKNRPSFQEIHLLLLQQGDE
Method: as §1, §2

T3 sequence (O96013 whole entry): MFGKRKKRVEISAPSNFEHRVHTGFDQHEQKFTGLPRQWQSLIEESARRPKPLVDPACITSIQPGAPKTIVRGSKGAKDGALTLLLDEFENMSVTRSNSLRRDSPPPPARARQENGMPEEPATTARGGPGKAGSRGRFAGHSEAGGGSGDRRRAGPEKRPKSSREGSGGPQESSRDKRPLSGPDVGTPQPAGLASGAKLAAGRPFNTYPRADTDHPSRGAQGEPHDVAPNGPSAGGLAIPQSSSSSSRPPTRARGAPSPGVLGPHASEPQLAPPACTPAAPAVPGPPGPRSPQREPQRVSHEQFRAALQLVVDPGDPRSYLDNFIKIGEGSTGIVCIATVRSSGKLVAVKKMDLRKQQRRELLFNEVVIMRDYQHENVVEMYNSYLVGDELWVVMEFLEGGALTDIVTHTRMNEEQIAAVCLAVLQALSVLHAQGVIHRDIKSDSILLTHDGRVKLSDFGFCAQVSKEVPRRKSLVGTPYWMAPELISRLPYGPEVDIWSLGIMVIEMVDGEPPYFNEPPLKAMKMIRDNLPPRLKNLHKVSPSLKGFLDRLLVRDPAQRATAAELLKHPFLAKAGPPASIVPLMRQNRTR
T5 sequence (O14578 whole entry): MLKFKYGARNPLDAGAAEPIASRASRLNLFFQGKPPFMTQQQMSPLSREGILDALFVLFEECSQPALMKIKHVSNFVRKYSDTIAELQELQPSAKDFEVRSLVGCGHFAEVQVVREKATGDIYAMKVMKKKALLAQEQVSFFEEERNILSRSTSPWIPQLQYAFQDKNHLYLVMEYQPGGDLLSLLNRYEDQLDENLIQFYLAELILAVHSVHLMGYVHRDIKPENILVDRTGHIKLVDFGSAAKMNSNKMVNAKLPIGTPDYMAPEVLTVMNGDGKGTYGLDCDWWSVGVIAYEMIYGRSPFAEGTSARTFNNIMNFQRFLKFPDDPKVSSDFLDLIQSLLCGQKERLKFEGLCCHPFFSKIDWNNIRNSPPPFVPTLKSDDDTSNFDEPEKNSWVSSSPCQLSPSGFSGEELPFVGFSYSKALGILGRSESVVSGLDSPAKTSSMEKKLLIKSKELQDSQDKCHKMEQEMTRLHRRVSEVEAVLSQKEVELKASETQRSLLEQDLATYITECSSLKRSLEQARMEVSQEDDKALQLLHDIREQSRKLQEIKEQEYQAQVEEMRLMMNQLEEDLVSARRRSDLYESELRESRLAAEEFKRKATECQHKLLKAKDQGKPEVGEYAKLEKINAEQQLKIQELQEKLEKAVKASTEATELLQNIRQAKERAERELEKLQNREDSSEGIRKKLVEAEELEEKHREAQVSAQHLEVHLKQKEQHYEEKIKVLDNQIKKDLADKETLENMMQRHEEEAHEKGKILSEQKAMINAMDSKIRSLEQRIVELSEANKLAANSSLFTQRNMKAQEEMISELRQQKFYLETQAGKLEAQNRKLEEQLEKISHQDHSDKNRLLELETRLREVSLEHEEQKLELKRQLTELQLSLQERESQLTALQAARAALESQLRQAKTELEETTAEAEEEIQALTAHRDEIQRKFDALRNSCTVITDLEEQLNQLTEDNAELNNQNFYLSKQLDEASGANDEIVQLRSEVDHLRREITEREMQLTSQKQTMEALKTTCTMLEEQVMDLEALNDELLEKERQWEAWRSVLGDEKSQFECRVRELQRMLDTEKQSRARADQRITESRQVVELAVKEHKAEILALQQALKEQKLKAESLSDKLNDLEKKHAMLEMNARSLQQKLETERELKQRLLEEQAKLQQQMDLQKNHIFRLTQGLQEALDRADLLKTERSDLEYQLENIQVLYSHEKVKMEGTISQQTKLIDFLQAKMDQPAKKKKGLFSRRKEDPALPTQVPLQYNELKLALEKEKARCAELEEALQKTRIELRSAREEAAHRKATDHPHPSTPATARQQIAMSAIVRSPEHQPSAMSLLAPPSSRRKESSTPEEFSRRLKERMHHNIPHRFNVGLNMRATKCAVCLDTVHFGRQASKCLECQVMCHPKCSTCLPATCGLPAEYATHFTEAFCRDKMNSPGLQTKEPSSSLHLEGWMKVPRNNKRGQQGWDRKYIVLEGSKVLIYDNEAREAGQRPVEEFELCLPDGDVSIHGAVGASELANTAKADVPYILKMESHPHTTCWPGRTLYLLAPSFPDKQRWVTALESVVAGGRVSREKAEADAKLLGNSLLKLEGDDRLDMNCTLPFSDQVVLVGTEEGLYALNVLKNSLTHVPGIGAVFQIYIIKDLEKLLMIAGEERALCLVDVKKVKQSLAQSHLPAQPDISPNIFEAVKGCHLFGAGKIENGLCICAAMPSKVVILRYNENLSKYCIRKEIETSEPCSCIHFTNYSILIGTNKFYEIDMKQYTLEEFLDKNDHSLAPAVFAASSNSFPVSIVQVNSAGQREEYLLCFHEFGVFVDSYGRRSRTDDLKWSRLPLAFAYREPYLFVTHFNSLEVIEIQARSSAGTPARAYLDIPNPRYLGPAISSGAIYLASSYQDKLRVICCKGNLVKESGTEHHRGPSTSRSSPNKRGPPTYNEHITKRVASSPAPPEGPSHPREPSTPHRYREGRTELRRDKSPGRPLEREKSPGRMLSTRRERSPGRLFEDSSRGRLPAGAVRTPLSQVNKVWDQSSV

SMILES | inhibition at 10 µM (RIPK4; RIPK4, 10 µM, read-out: % Competition) | inhibition at 10 µM (FLT3(D835Y); FLT3(D835Y), 10 µM, read-out: % Competition) | inhibition at 10 µM (PAK4; PAK4, 10 µM, read-out: % Competition) | % Competition (EGFR(E746-A750del)) | % Competition (CIT) | inhibition at 10 µM (DDR2; DDR2, 10 µM, read-out: % Competition) | inhibition at 10 µM (RIPK4; read-out: % Competition) | inhibition at 10 µM (FLT3(D835Y); read-out: % Competition) | inhibition at 10 µM (PAK4; read-out: % Competition) | inhibition at 10 µM (DDR2; read-out: % Competition) | inhibition at 10 µM (RIPK4; RIPK4, compound concentration 10 uM, read-out: Percent Competition) | inhibition at 10 µM (FLT3(D835Y); FLT3(D835Y), compound concentration 10 uM, read-out: Percent Competition) | inhibition at 10 µM (PAK4; PAK4, compound concentration 10 uM, read-out: Percent Competition) | Percent Competition (EGFR(E746-A750del); compound concentration 10 uM) | Percent Competition (CIT; compound concentration 10 uM) | inhibition at 10 µM (DDR2; DDR2, compound concentration 10 uM, read-out: Percent Competition)
Fc1ccc(-c2c(-c3ccncc3)[nH]c3nccnc23)cc1 [Compound 122] | 76% | 76% | 82% | 96% | 99% | 100% |  |  |  |  |  |  |  |  |  | 
CC(O)CNc1cc(-c2[nH]c3cccnc3c2-c2ccc(F)cc2)ccn1 (stereo not drawn) [Compound 140] |  |  |  | 90% | 99% |  | < 50% | < 50% | < 50% | 67% |  |  |  |  |  | 
Fc1ccc(-c2c(-c3ccncc3)[nH]c3nccnc23)cc1 [RO1155697-000-005] |  |  |  |  |  |  |  |  |  |  | 76% | 76% | 82% | 96% | 99% | 100%

Reference: article PMC3445516 (PLoS ONE, 2012)
